The molecules below were run against GPR40 (Homo sapiens, UniProt O14842) (assay: Cell-based aequorin assay (CHO cells stably expressing GPR40 and aequorin)). Conditions: activation of human GPR40, CHO cells, 0.01% HSA.
Design: expressed in transfected cells; host or cells: CHO cells stably transfected with GPR40 and aequorin
Experimental: Briefly, the Aequorin assays were performed on doubly stable CHO cells expressing GPR40 and Aequorin DNA. […] The luminescence was recorded over a period of 20 seconds with a Microlumat luminometer (Berthold). […] The inositol phosphate assay was performed on an A9 cell line stably transfected with GPR40 (A9_GPR40). The cells were incubated with different concentrations of compounds and [^3H] inositol accumulation was measured after 1 hour.
Cell-based aequorin assays were employed to characterize the modulatory activity of compounds on the GPR40 signaling pathway. In an exemplary assay, CHO cells were stably transfected with both GPR40 and Aequorin (Euroscreen). Cells were detached from the tissue culture dish with 2 mL of trypsin (0.25%(w/v)). Trypsinization was halted with 28 mL of Hanks Buffered Salt Solution containing 20 mM Hepes (H/HBSS) and 0.01% fatty acid-free human serum albumin (HSA). Coelantrazine is added to 1 ug/mL, and the cells were incubated for 2 hours at room temperature. Compounds were dissolved in DMSO for preparation of 10 mM stock solutions. Compounds were diluted in H/HBSS containing 0.01% HSA. Serial dilutions of the test compounds were prepared to determine dose response.
Aequorin luminescence measurements were made using an EG&G Berthold 96-well luminometer, and the response was measured over a 20 second interval after cells and compounds were mixed. The maximum relative light units was plotted to determine dose response. The EC50 (effective concentration to reach 50% maximal response) was determined from the dose response plot.

Sequence of GPR40 (O14842 whole entry): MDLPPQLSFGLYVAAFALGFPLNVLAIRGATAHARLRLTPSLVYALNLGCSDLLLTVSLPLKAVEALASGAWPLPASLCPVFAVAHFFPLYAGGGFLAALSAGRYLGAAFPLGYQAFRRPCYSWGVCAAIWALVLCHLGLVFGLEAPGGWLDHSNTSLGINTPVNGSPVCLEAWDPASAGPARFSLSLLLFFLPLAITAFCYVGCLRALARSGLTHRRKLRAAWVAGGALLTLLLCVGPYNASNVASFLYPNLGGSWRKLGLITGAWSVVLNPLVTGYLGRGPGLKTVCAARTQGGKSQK

EC50 [µM]	SMILES
1 to 10	CSc1cccc(-c2ccc(COc3cccc([C@H](C)CC(=O)O)c3)cc2C(C)(C)C)c1 (single isomer, unassigned) [Example 3, (3R)-3-(3-(((2-(1,1-Dimethylethyl)-3′-(methylsulfanyl)-1,1′-biphenyl-4-yl)methyl)oxy)phenyl)butanoic acid or (3S)-3-(3-(((2-(1,1-dimethylethyl)-3′-(methylsulfanyl)-1,1′-biphenyl-4-yl)methyl)oxy)phenyl)butanoic acid]
1 to 10	C=C[C@H](CC(=O)O)c1cccc(OCc2ccc(-c3cc(OC)ccc3F)c(C(C)(C)C)c2)c1 (single isomer, unassigned) [Example 15, (3S)-3-(3-(((2-(1,1-Dimethylethyl)-2′-fluoro-5′-(methyloxy)-1,1′-biphenyl-4-yl)methyl)oxy)phenyl)-4-pentenoic acid or (3R)-3-(3-(((2-(1,1-dimethylethyl)-2′-fluoro-5′-(methyloxy)-1,1′-biphenyl-4-yl)methyl)oxy)phenyl)-4-pentenoic acid]
1 to 10	C=C[C@H](CC(=O)O)c1cccc(OCc2ccc(-c3cc(OC)ccc3F)c(OCCCC)c2)c1 (single isomer, unassigned) [Example 16, (3S)-3-(3-(((2-(Butyloxy)-2′-fluoro-5′-(methyloxy)-1,1′-biphenyl-4-yl)methyl)oxy)phenyl)-4-pentenoic acid or (3R)-3-(3-(((2-(butyloxy)-2′-fluoro-5′-(methyloxy)-1,1′-biphenyl-4-yl)methyl)oxy)phenyl)-4-pentenoic acid]
1 to 10	C=CC(CC(=O)O)c1cccc(OCc2ccc(-c3cc(OC)ccc3F)c(C(C)(C)C)c2)c1 (single isomer, unassigned) [Example 19, (3R)-3-(3-(((2-(1,1-Dimethylethyl)-2′-fluoro-5′-(methyloxy)-1,1′-biphenyl-4-yl)methyl)oxy)phenyl)-4-pentenoic acid or (3S)-3-(3-(((2-(1,1-dimethylethyl)-2′-fluoro-5′-(methyloxy)-1,1′-biphenyl-4-yl)methyl)oxy)phenyl)-4-pentenoic acid]
1 to 10	CCCCOc1cc(COc2cccc([C@H](C)CC(=O)O)c2)ccc1-c1ccc(OC)cc1 (single isomer, unassigned) [Example 21, (3R)-3-(3-(((2-(Butyloxy)-4′-(methyloxy)-1,1′-biphenyl-4-yl)methyl)oxy)phenyl)butanoic acid or (3S)-3-(3-(((2-(butyloxy)-4′-(methyloxy)-1,1′-biphenyl-4-yl)methyl)oxy)phenyl)butanoic acid]
1 to 10	CCCCOc1cc(COc2cccc([C@H](C)CC(=O)O)c2)ccc1-c1cccc(OCC)c1 (single isomer, unassigned) [Example 22, (3R)-3-(3-(((2-(Butyloxy)-3′-(ethyloxy)-1,1′-biphenyl-4-yl)methyl)oxy)phenyl)butanoic acid or (3S)-3-(3-(((2-(butyloxy)-3′-(ethyloxy)-1,1′-biphenyl-4-yl)methyl)oxy)phenyl)butanoic acid]

SMILES	EC50 [µM]
COc1ccc(F)c(-c2ccc(COc3cccc([C@H](CC(=O)O)C4CC4)c3)cc2C(C)(C)C)c1 (single isomer, unassigned) [Example 10, (3R)-3-Cyclopropyl-3-(3-(((2-(1,1-dimethylethyl)-2′-fluoro-5′-(methyloxy)-1,1′-biphenyl-4-yl)methyl)oxy)phenyl)propanoic acid or (3S)-3-cyclopropyl-3-(3-(((2-(1,1-dimethylethyl)-2′-fluoro-5′-(methyloxy)-1,1′-biphenyl-4-yl)methyl)oxy)phenyl)propanoic acid]	1 to 10
CCCCOc1cc(COc2cccc([C@H](CC(=O)O)C3CC3)c2)ccc1-c1cc(OC)ccc1F (single isomer, unassigned) [Example 11, (3R)-3-(3-(((2-(Butyloxy)-2′-fluoro-5′-(methyloxy)-1,1′-biphenyl-4-yl)methyl)oxy)phenyl)-3-cyclopropylpropanoic acid or (3S)-3-(3-(((2-(butyloxy)-2′-fluoro-5′-(methyloxy)-1,1′-biphenyl-4-yl)methyl)oxy)phenyl)-3-cyclopropylpropanoic acid]	1 to 10

Reference: patent publication US8030354B2, “Substituted biphenyl GPR40 modulators” (Amgen Inc., priority 2007, dated 2011)
